We go through 32 molecules from US9481670B2, “Triazine compounds” (Sphaera Pharma PTE. Ltd., priority 2011, dated 2016).

A word on the IC50: it is the midpoint of a concentration-inhibition curve. Low values mean higher potency, high ones lower potency.

The target of the assay is T1, PI3K alpha (Homo sapiens, UniProt P42336).
T1 construct: purchased Millipore Upstate
T1 sequence (P42336 whole entry): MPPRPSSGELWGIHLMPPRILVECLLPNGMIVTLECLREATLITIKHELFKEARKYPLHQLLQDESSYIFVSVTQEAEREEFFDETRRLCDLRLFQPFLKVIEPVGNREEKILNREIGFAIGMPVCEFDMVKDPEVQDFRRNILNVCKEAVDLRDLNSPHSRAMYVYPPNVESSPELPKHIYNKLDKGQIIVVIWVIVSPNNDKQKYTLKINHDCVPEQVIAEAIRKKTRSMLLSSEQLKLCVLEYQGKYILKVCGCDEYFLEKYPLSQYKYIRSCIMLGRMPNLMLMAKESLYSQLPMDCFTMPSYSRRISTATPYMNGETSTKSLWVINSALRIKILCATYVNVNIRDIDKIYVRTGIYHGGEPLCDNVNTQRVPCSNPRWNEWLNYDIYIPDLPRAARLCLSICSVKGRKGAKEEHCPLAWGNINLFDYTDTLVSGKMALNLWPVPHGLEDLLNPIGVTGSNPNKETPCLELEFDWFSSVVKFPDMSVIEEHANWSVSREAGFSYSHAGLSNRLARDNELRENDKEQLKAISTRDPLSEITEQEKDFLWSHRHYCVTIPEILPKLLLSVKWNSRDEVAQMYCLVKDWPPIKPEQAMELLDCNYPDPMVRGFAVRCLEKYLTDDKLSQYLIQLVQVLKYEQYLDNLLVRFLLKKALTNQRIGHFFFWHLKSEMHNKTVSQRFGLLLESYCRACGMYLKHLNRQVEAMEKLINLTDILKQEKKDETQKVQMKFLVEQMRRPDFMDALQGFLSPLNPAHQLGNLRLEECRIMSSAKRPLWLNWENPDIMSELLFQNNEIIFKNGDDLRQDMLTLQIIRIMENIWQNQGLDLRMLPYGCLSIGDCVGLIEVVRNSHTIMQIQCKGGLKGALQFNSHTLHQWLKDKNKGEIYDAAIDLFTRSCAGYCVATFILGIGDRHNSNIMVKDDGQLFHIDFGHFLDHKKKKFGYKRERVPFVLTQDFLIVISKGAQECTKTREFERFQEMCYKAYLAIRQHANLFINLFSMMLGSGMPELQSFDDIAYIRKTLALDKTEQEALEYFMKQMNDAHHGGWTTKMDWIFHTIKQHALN
T1 sequence (P27986 whole entry partner): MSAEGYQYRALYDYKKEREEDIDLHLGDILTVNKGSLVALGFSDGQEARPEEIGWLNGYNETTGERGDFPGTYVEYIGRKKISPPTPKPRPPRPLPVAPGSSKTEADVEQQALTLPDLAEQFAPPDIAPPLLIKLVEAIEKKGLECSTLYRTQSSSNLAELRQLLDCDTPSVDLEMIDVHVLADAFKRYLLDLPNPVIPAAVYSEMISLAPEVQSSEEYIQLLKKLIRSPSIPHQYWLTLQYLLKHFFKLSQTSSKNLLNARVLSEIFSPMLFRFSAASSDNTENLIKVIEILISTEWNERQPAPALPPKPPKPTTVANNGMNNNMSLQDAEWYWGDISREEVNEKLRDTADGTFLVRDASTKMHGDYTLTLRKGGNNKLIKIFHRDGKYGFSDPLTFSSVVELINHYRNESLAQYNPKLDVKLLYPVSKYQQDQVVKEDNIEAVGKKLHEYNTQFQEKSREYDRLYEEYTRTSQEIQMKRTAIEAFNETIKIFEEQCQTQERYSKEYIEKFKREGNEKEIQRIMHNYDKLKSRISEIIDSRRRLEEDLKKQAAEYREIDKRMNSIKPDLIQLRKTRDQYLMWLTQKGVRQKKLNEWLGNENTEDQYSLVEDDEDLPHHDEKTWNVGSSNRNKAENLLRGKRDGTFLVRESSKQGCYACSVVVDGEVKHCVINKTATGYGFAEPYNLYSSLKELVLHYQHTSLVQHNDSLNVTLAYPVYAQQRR
Description: P110 Alpha TR-FRET Assay (PI3K alpha kinase assay, HTRF Transcreener ADP Assay). It is filed as biochemical. The following applies: PI3K (WT). The procedure: PI3K alpha kinase assay may be done using HTRF Transcreener ADP Assay (Cisbio).
Composition of the reaction buffer was as follows 50 mM HEPES, pH 7.5, 5 mM MgCl2, 1 mM DTT, 30 μM Na3VO4. PI3 Kinase was procured from Millipore Upstate. […] ATP was used at final concentration of 10 μM. Corning 384 well white plates were used for the assay.
2 μl of diluted enzyme (50 ng), 3 μl of diluted compound and 5 μl of buffer were added, mixed then incubated for 20 minutes with shaking at 400 rpm. 3 μl of substrate (10 μM of ATP and 5 μM PIP2) were added to initiate the reaction. The samples were incubated for 20 min. At the end of the reaction time 10 μl of the Detection mix (5 μl of ADP-D2 and 5 μl of Anti-ADP-Cryptate) was added and the contents were incubated for 1 h. The reaction plate was directly read in an Envision Multilabel Plate Reader.
In general terms: TR-FRET usually uses a lanthanide donor and a delayed reading to cut background.
For `CN(C)C(=O)c1ccc(Oc2nc(-c3ccc(N)cc3)nc(N3CCOCC3)n2)cc1` [Compound 1031, 4-14-{[4-1-(4-17-aminophenyl)-6-5-(morpholin-4-yl)-1,3,5-triazin-2-yl]oxy}-N,N-dimethylbenzamide], the 50% inhibitory concentration (IC50) was less than 5 µM. The result for `CN(C)C(=O)c1ccc(Oc2nc(-c3cncc(N)c3)nc(N3CCOCC3)n2)cc1` [Compound 1032, 4-14-{[4-1-(5-26-aminopyridin-3-yl)-6-5-(morpholin-4-yl)-1,3,5-triazin-2-yl]oxy}-N,N-dimethylbenzamide] reads less than 5 µM; that for `CN(C)C(=O)c1ccc(Oc2nc(-c3cccc4c(=O)[nH]ccc34)nc(N3CCOCC3)n2)cc1` [Compound 1033, N,N-dimethyl-4-14-{[4-5-(morpholin-4-yl)-6-1-(1-30-oxo-1,2-dihydroisoquinolin-5-yl)-1,3,5-triazin-2-yl]oxy}benzamide], more than 5 µM; that for `CN(C)C(=O)c1ccc(Oc2nc(-c3cccc4[nH]c(=O)[nH]c34)nc(N3CCOCC3)n2)cc1` [Compound 1034, N,N-dimethyl-4-14-{[4-5-(morpholin-4-yl)-6-1-(2-21-oxo-2,3-dihydro-1H-1,3-benzodiazol-4-yl)-1,3,5-triazin-2-yl]oxy}benzamide], more than 5 µM. In turn, `CN(C)C(=O)[C@H]1CC[C@H](Oc2nc(-c3ccc(N)nc3)nc(N3CCOCC3)n2)CC1` [Compound 1035, (1r,4r)-4-9-{[4-1-(6-12-aminopyridin-3-yl)-6-5-(morpholin-4-yl)-1,3,5-triazin-2-yl]oxy}-N,N-dimethylcyclohexane-1-carboxamide] came in with a concentration for half-maximal inhibition (IC50) of less than 5 µM. The result for `CN(C)C(=O)c1ccc(Oc2nc(-c3ccnc(N)c3)nc(N3CCOCC3)n2)cc1` [Compound 1036, 4-14-{[4-1-(2-26-aminopyridin-4-yl)-6-5-(morpholin-4-yl)-1,3,5-triazin-2-yl]oxy}-N,N-dimethylbenzamide] reads less than 5 µM. In the case of `Nc1ccc(-c2nc(SCc3ccccc3)nc(N3CCOCC3)n2)cn1` [Compound 1037, 5-(4-(benzylthio)-6-morpholino-1,3,5-triazin-2-yl)pyridin-2-amine] it was less than 5 µM; in that of `CN(C)C(=O)c1ccc(Oc2nc(-c3cccc4[nH]ncc34)nc(N3CCNC(=O)CC3)n2)cc1` [Compound 1038, 4-7-{[4-5-(1H-indazol-4-yl)-6-3-(5-31-oxo-1,4-diazepan-1-yl)-1,3,5-triazin-2-yl]oxy}-N,N-dimethylbenzamide], more than 5 µM. In the case of `CN(C)C(=O)c1ccc(Oc2nc(-c3cccc4[nH]ncc34)nc(N3CCCC(C(N)=O)C3)n2)cc1` (centres unmarked) [Compound 1039, 1-27-{4-1-[4-10-(dimethylcarbamoyl)phenoxy]-6-5-(1H-indazol-4-yl)-1,3,5-triazin-2-yl}piperidine-3-carboxamide] it was more than 5 µM. As for `CN(C)C(=O)c1cccc(Nc2nc(-c3cnc(N)nc3)nc(N3CCOCC3)n2)c1` [Compound 1040, 3-((4-(2-aminopyrimidin-5-yl)-6-morpholino-1,3,5-triazin-2-yl)amino)-N,N-dimethylbenzamide], the half-inhibitory concentration (IC50) is less than 5 µM.

With `CN(C)C(=O)c1ccc(Oc2nc(-c3cnc4[nH]ccc4c3)nc(N3CCOCC3)n2)cc1` [Compound 1041, N,N-dimethyl-4-8-{[4-5-(morpholin-4-yl)-6-1-{1H-pyrrolo[2,3-b]pyridin-5-yl}-1,3,5-triazin-2-yl]oxy}benzamide], the IC50 is less than 5 µM. `Nc1ncc(-c2nc(N3CCOCC3)nc(N3CCOCC3)n2)s1` [Compound 1042, 5-7-[4-3,6-5-bis(morpholin-4-yl)-1,3,5-triazin-2-yl]-1,3-thiazol-2-amine]: the IC50 was less than 5 µM. The result for `CN(C)C(=O)c1ccc(Oc2nc(-c3cccc4[nH]ncc34)nc(N3CCOc4ccccc43)n2)cc1` [Compound 1043, 4-9-{[4-5-(3,4-dihydro-2H-1,4-benzoxazin-4-yl)-6-1-(1H-indazol-4-yl)-1,3,5-triazin-2-yl]oxy}-N,N-dimethylbenzamide] reads more than 5 µM. The molecule `CN(C)C(=O)c1ccc(Oc2nc(-c3cccc4[nH]ncc34)nc(N3CCC(=O)CC3)n2)cc1` [Compound 1044, 4-8-{[4-5-(1H-indazol-4-yl)-6-3-(4-30-oxopiperidin-1-yl)-1,3,5-triazin-2-yl]oxy}-N,N-dimethylbenzamide] yielded an IC50 of more than 5 µM. The molecule `Cc1nc(N2CCOCC2)nc(N2CCOCC2)n1` [Compound 1045, 2-1-methyl-4-5,6-3-bis(morpholin-4-yl)-1,3,5-triazine] displayed an IC50 of more than 5 µM. The result for `NC(=O)c1cccc(Nc2nc(-c3cnc(N)nc3)nc(N3CCOCC3)n2)c1` [Compound 1046, 3-((4-(2-aminopyrimidin-5-yl)-6-morpholino-1,3,5-triazin-2-yl)amino)benzamide] reads less than 5 µM. `CN(C)C(=O)c1ccc(Oc2nc(-c3cccc4[nH]ncc34)nc(N3CC(C(N)=O)C3)n2)cc1` [Compound 1047, 1-7-{4-1-[4-11-(dimethylcarbamoyl)phenoxy]-6-5-(1H-indazol-4-yl)-1,3,5-triazin-2-yl}azetidine-3-carboxamide] showed a concentration for half-maximal inhibition (IC50) of more than 5 µM. The result for `CS(=O)(=O)N[C@H]1CCC[C@H](Oc2nc(-c3cccc4c3cnn4S(C)(=O)=O)nc(N3CCOCC3)n2)C1` [Compound 1048, N-[(1S,3S)-3-14-{[4-1-(1-27-methanesulfonyl-1H-indazol-4-yl)-6-5-(morpholin-4-yl)-1,3,5-triazin-2-yl]oxy}cyclohexyl]methanesulfonamide] reads less than 5 µM; that for `CN(C)C(=O)N1CCN(Cc2nc(-c3ccc(N)nc3)nc(N3CCOCC3)n2)CC1` [Compound 1049, 4-((4-(6-aminopyridin-3-yl)-6-morpholino-1,3,5-triazin-2-yl)methyl)-N,N-dimethylpiperazine-1-carboxamide], less than 5 µM. The result for `CN(C)C(=O)c1ccc(Oc2nc(-c3cccc4[nH]nnc34)nc(N3CCOCC3)n2)cc1` [Compound 1050, 4-14-{[4-1-(1H-1,2,3-benzotriazol-4-yl)-6-5-(morpholin-4-yl)-1,3,5-triazin-2-yl]oxy}-N,N-dimethylbenzamide] reads more than 5 µM. The result for `Nc1ncc(-c2nc(N3CCOCC3)nc(N3CCNC(=O)CC3)n2)cn1` [Compound 1051, 1-6-[4-1-(2-22-aminopyrimidin-5-yl)-6-5-(morpholin-4-yl)-1,3,5-triazin-2-yl]-1,4-diazepan-5-one] reads less than 5 µM; that for `CN(C)C(=O)c1ccc(Oc2nc(-c3ccc4[nH]ccc4c3)nc(N3CCOCC3)n2)cc1` [Compound 1052, 4-14-{[4-1-(1H-indol-5-yl)-6-5-(morpholin-4-yl)-1,3,5-triazin-2-yl]oxy}-N,N-dimethylbenzamide], less than 5 µM.

For `Nc1ncc(-c2nc(N3CCOCC3)nc(N3CCN(S(N)(=O)=O)CC3)n2)cn1` [Compound 1053, 4-6-[4-1-(2-16-aminopyrimidin-5-yl)-6-5-(morpholin-4-yl)-1,3,5-triazin-2-yl]piperazine-1-sulfonamide], the concentration for half-maximal inhibition (IC50) was less than 5 µM. In the case of `O=C1CCc2ccc(Oc3nc(-c4cccc5[nH]ncc45)nc(N4CCOCC4)n3)cc2N1` [Compound 1054, 7-14-{[4-1-(1H-indazol-4-yl)-6-5-(morpholin-4-yl)-1,3,5-triazin-2-yl]oxy}-1,2,3,4-tetrahydroquinolin-2-one] it was less than 5 µM; in that of `CN(C)C(=O)c1ccc(Oc2nc(-c3cccc4[nH]ncc34)nc(N3CC4(COC4)C3)n2)cc1` [Compound 1055, 4-8-{[4-5-(1H-indazol-4-yl)-6-3-{2-oxa-6-azaspiro[3.3]heptan-6-yl}-1,3,5-triazin-2-yl]oxy}-N,N-dimethylbenzamide], more than 5 µM; in that of `CN(C)C(=O)c1cccc(Nc2nc(-c3cccc4[nH]ncc34)nc(N3CC(C(N)=O)C3)n2)c1` [Compound 1056], more than 5 µM.

In turn, `CN(C)C(=O)c1ccc(Oc2nc(NC3CCOCC3)nc(-c3cccc4[nH]ncc34)n2)cc1` [Compound 1057, 4-((4-(1H-indazol-4-yl)-6-((tetrahydro-2H-pyran-4-yl)amino)-1,3,5-triazin-2-yl)oxy)-N,N-dimethylbenzamide] came in with a half-maximal inhibitory concentration (IC50) of more than 5 µM.

As to `CN(C)C(=O)c1ccc(Oc2nc(-c3ccnc4[nH]ccc34)nc(N3CCOCC3)n2)cc1` [Compound 1058, N,N-dimethyl-4-14-{[4-5-(morpholin-4-yl)-6-1-{1H-pyrrolo[2,3-b]pyridin-4-yl}-1,3,5-triazin-2-yl]oxy}benzamide], the 50% inhibitory concentration (IC50) was less than 5 µM. The result for `CN(C)C(=O)c1ccc(Oc2nc(-c3cccc4[nH]ncc34)nc(N3CCNC(=O)C3)n2)cc1` [Compound 1059, 4-7-{[4-5-(1H-indazol-4-yl)-6-3-(3-29-oxopiperazin-1-yl)-1,3,5-triazin-2-yl]oxy}-N,N-dimethylbenzamide] reads more than 5 µM; that for `CN(C)C(=O)c1cccc(Nc2nc(-c3ccc(N)nc3)nc(N3CCOCC3)n2)c1` [Compound 1060, 3-((4-(6-aminopyridin-3-yl)-6-morpholino-1,3,5-triazin-2-yl)amino)-N,N-dimethylbenzamide], less than 5 µM; that for `CN1CCN(c2nc(Oc3ccc(C(=O)N(C)C)cc3)nc(-c3cccc4[nH]ncc34)n2)CC1` [Compound 1061, 4-9-{[4-1-(1H-indazol-4-yl)-6-5-(4-30-methylpiperazin-1-yl)-1,3,5-triazin-2-yl]oxy}-N,N-dimethylbenzamide], more than 5 µM.

Consider `CS(=O)(=O)N1CCN(c2nc(-c3cnc(N)nc3)nc(N3CCOCC3)n2)CC1` [Compound 1062, 5-13-[4-3-(4-22-methanesulfonylpiperazin-1-yl)-6-5-(morpholin-4-yl)-1,3,5-triazin-2-yl]pyrimidin-2-amine], for which the half-inhibitory concentration (IC50) was less than 5 µM.
